Assay results: patent US4181657A, “2-Aminooctahydroindolo[2,3-a]quinolizines useful in treating cardiovascular disorders” (Miles Laboratories, Inc., priority 1978, dated 1980)
Structures can show the parent of a compound that is named as a salt.

What was measured:
Format in all cases: in vivo
[1] = system: ventricular arrhythmia produced by chloroform; assay: Antiarrhythmic activity: protection from chloroform-induced ventricular arrhythmia in mice (Lawson model); details: mouse; for Antiarrhythmic activity, ED50 symbol (failed screening dose) / mice protected of 5: 31 mg/kg i.p.; for Antiarrhythmic activity, ED50 symbol (failed screening dose): groups of 5 mice; for ED50: ip, 10 min, i.p., 10 min before chloroform, 95% confidence limits in parentheses, read-out: ED50 (95% C.L.)
Method: The antiarrhythmic activity of the compounds of this invention was determined in the experimental model described by J. W. Lawson (J. Pharmacol. Exper. Therap. 160:22-31, 1968). Test compounds were administered to groups of 5 mice at an intraperitoneal dose of 31 mg/kg. Ten minutes after injection each mouse was placed in a covered 300 ml glass beaker which contained cotton saturated with chloroform. The animal was observed closely and removed from the beaker immediately after respiratory arrest. The heart was quickly exposed by making an incision through the abdomen, diaphragm, thorax and pericardium for visual inspection of ventricular rate and rhythm. Ventricular contractions were counted for 30 seconds and animals with a rate not exceeding 100 beats per 30 seconds were considered protected from the ventricular arrhythmia produced by chloroform. Compounds protecting at least 3 of the 5 mice were subsequently tested at various doses and the results obtained were used to calculate the mean effective doses (ED50) and 95% confidence limits after the method of Litchfield and Wilcoxon (J. Pharmacol. Exper. Therap. 96:99-113, 1949). Table A presents the results obtained in the antiarrhythmic study.

Systolic Blood Pressure = assay: Antihypertensive activity: indirect systolic blood pressure in renal hypertensive rats; details: rat, 31 mg/kg p.o., * in table = statistically significant change from control
Method: Rats were made hypertensive by applying a figure of eight ligature to one kidney and removing the contralateral kidney two weeks later. At least four weeks after the second operation the animals were subjected to indirect systolic blood pressure measurements with an occluding cuff and pulse sensor system applied to the tail. Pressure measurements were made before and 1,2,4,6 and 8 hours after oral administration of the test compounds at a dose of 31 mg/kg. Each compound was tested in 5 or 10 rats. Statistical significance of differences between control and post treatment values was determined by Wilcoxon's signed rank test (F. Wilcoxon and R. A. Wilcox, Some Rapid Approximate Statistical Procedures, Lederle Laboratories, Pearl River, 1964).

dog heart in situ = assay: Antianginal activity: aortic-coronary sinus difference in oxygen (myocardial oxygen consumption) in anesthetized dogs; details: 1 mg/kg i.v.; for antianginal activity (conclusion in words): based upon comparison with nitroglycerin, named compounds 'particularly'
Method: Angina pectoris is a clinical condition of hypoxia that results from an imbalance in myocardial oxygen supply and demand. A drug reducing oxygen demand is useful in the treatment of angina pectoris, as has been the case with nitroglycerin and the beta-adrenergic blocking agents like propranolol (J. R. Paratt, Advan. Drug Res. 9:103-134, 1974). Accordingly,the antianginal activity of 2-substituted indoloquinolizines was evaluated by assessing their capacity to reduce oxygen consumption by the dog heart in situ. This method allows measurement of the difference in oxygen content of the arterial and venous blood.
Mongrel dogs were anesthetized with pentobarbital and cannulas inserted in the trachea and in a femoral vein for artificial respiration with room air and for injection of test compounds, respectively. Heparin was administered intravenously to prevent blood clotting. The chest was opened at the sternal midline and an additional cannula introduced in the coronary sinus. Samples of blood were obtained from the coronary sinus cannula and from the thoracic aorta by direct puncture of the vessel. Partial pressure of oxygen in the samples was determined with a blood gas analyzer. Test compounds were injected intravenously at a dose of 1 mg/kg; oxygen measurements were made before administration and at 1, 5, 10, 20, 30, 40, 50 and 60 min after administration. One animal was used per test compound. As the standard of comparison, nitroglycerin was administered to a test animal and measurements were made in a similar manner.
Differences between partial pressure values in arterial and venous blood samples were calculated for each measurement. Since coronary sinus blood is representative of the venous effluent from the heart, these differences reflect the consumption of oxygen by the myocardium. Thus, the decrease in arteriovenous oxygen difference produced by the compounds by this invention indicates a reduction in myocardial oxygen consumption.

SMILES | Antiarrhythmic activity, ED50 symbol (failed screening dose) [1] | Change in Systolic Blood Pressure at 1 hr (Systolic Blood Pressure) | Change in Systolic Blood Pressure at 2 hr (Systolic Blood Pressure) | Change in Systolic Blood Pressure at 4 hr (Systolic Blood Pressure) | Change in Systolic Blood Pressure at 6 hr (Systolic Blood Pressure) | Change in Systolic Blood Pressure at 8 hr (Systolic Blood Pressure) | Arterio-Venous Difference in Oxygen Partial Pressure at 1 min (dog heart in situ) | Arterio-Venous Difference in Oxygen Partial Pressure at 5 min (dog heart in situ) | Arterio-Venous Difference in Oxygen Partial Pressure at 10 min (dog heart in situ) | Arterio-Venous Difference in Oxygen Partial Pressure at 20 min (dog heart in situ) | Arterio-Venous Difference in Oxygen Partial Pressure at 30 min (dog heart in situ) | Arterio-Venous Difference in Oxygen Partial Pressure at 40 min (dog heart in situ) | Arterio-Venous Difference in Oxygen Partial Pressure at 50 min (dog heart in situ) | Arterio-Venous Difference in Oxygen Partial Pressure at 60 min (dog heart in situ) | antianginal activity (conclusion in words) (dog heart in situ) | ED50 [1] | mice protected of 5 [1]
COc1ccc(NC2CCN3CCc4c(n(Cc5ccccc5)c5ccccc45)C3C2)cc1.Cl.Cl (centres unmarked) [TR3006, 12-benzyl-2-(4-methoxyanilino)-1,2,3,4,6,7,12,12b-octahydroindolo[2,3-a]quinolizine dihydrochloride] | * (Did not protect 3 of 5 mice and thus was not tested further.) | -28 mmHg | -20 mmHg | -18 mmHg | -12 mmHg | -14 mmHg | 30 mmHg | 44 mmHg | 45 mmHg | 42 mmHg | 37 mmHg | 38 mmHg | 36 mmHg | 36 mmHg | antianginal activity is seen |  | 
NS(=O)(=O)c1ccc(NC2CCN3CCc4c(n(Cc5ccccc5)c5ccccc45)C3C2)cc1 (centres unmarked) [TR3718, 12-benzyl-1,2,3,4,6,7,12,12b-octahydro-(4-sulfonamidoanilino)-indolo[2,3-a]quinolizine hydrochloride] | * (Did not protect 3 of 5 mice and thus was not tested further.) | -5 mmHg | -16 mmHg | -21 mmHg | -5 mmHg | +5 mmHg | 20 mmHg | 17 mmHg | 17 mmHg | 16 mmHg | 16 mmHg | 16 mmHg | 18 mmHg | 18 mmHg |  |  | 
FC(F)(F)c1cccc(NC2CCN3CCc4c(n(Cc5ccccc5)c5ccccc45)C3C2)c1 (centres unmarked) [TR3633, 12-benzyl-1,2,3,4,6,7,12,12b-octahydroindolo-2-(3-trifluoromethylanilino)[2,3-a]quinolizine dihydrochloride] | * (Did not protect 3 of 5 mice and thus was not tested further.) | -10 mmHg | +2 mmHg | +8 mmHg | +4 mmHg | +13 mmHg | 31 mmHg | 35 mmHg | 39 mmHg | 39 mmHg | 36 mmHg | 36 mmHg | 36 mmHg | 38 mmHg | antianginal activity is seen |  | 
Brc1cccc(NC2CCN3CCc4c(n(Cc5ccccc5)c5ccccc45)C3C2)c1.Cl (centres unmarked) [TR3014, 12-benzyl-2-(3-bromoanilino)-1,2,3,4,6,7,12,12b-octahydroindolo[2,3-a]quinolizine hydrochloride] |  | +1 mmHg | -16 mmHg | -2 mmHg | 0 mmHg | -3 mmHg | 17 mmHg | 18 mmHg | 26 mmHg | 25 mmHg | 26 mmHg | 26 mmHg | 26 mmHg | 24 mmHg | antianginal activity is seen | 32 mg/kg | at least 3 of 5 mice
CC(=O)Nc1ccc(NC2CCN3CCc4c(n(Cc5ccccc5)c5ccccc45)C3C2)cc1.Cl.Cl (centres unmarked) [TR3635, 2-(4-acetamidoanilino)-12-benzyl-1,2,3,4,6,7,12,12b-octahydroindolo-[2,3-a]quinolizine dihydrochloride] | * (Did not protect 3 of 5 mice and thus was not tested further.) | -23 mmHg | -23 mmHg | -27 mmHg | -16 mmHg | -10 mmHg | 24 mmHg | 24 mmHg | 24 mmHg | 23 mmHg | 24 mmHg | 26 mmHg | 25 mmHg | 26 mmHg |  |  | 
O=[N+]([O-])OCC(CO[N+](=O)[O-])O[N+](=O)[O-] [Nitroglycerin, nitroglycerin, reference compound] |  |  |  |  |  |  | 13 mmHg | 21 mmHg | 20 mmHg | 20 mmHg | 21 mmHg | 21 mmHg | 18 mmHg | 20 mmHg |  |  | 
CC(C)NC1CCN2CCc3c(n(Cc4ccccc4)c4ccccc34)C2C1.Cl.Cl.O (centres unmarked) [TR3687, 12-benzyl-2-isopropylamino-1,2,3,4,6,7,12,12b-octahydroindolo[2,3-a]quinolizine dihydrochloride monohydrate] |  | -2 mmHg | +16 mmHg | +18 mmHg | +18 mmHg | +9 mmHg | 15 mmHg | 22 mmHg | 23 mmHg | 20 mmHg | 20 mmHg | 20 mmHg | 23 mmHg | 23 mmHg | antianginal activity is seen | 19 mg/kg | at least 3 of 5 mice
